Patent publication US9381191B2, “Imidazopyridine derivatives useful in treating diabetes” (METABRAIN RESEARCH, priority 2012, dated 2016)

Columns and labels:
[1] = system: INS-1 cells; assay: Stimulation test of insulin secretion by INS-1 cells; format: cell-based; conditions: Rattus norvegicus, INS1, 1 h, insulin secretion by INS-1 cells in response to glucose; for insulin secretion, % of control at 10 µM: read-out: HGP % of ctrl @ 10 μM; for insulin secretion, % of control at 50 µM: read-out: HGP % of ctrl @ 50 μM
Experimental: The different compounds were tested on an INS-1 beta-pancreatic line in order to evaluate their capability of potentializing the insulin secretion in response to glucose. Very briefly, the cells are cultivated in a culture medium, RPMI 1640 with 10 mM glucose containing 1 mM of sodium pyruvate, 50 μM of 2-mercaptoethanol, 2 mM of glutamine, 10 mM of HEPES, 100 IU/ml of penicillin, 100 μg/ml of streptomycin and 10% of inactivated fetal calf serum, as described by Asfari et al.. For the insulin secretion test, the INS-1 cells are sown and cultivated in 96-well plates. After 3 days of cultivation at 37° C. in a humid atmosphere (95% air/5% CO2), the medium is removed and the cells are incubated for 16 h in a medium containing 5 mM of glucose and 1% of inactivated fetal calf serum. On the day of the test, the cells are washed with a Krebs buffer (pH 7.4) containing 0.1% of bovine albumin and then pre-incubated for 30 min at 37° C. in this same buffer containing 2.8 mM of glucose. Finally, the cells are again washed with Krebs buffer and then incubated for 1 h in the buffer of the secretion test (Krebs, pH 7.4 containing 0.1% of bovine albumin and 3.5 mM of glucose and molecules to be evaluated). At the end of the test, the cell supernatant is recovered in order to measure therein the secreted insulin, by means of an ELISA kit using a rat anti-insulin antibody (ELISA Alpco Cat no. 80-INSRTH-E10). Each condition is tested in triplicate. The 3.5 mM glucose, the 10^−7M GLP-1 and the Forskoline 10^−7/IBMX 10^−5M mixtures are used as positive controls of the test. A compound stimulates the secretion of insulin if this factor is greater than or equal to 130% of the control for a given glucose dose.

[2] = system: isolated rat hepatocytes; assay: Hepatic production of glucose, 20 h incubation; format: cell-based, Wistar rat; conditions: for HGP % of ctrl @ 50 μM / HGP % of ctrl @ 100 μM: rat hepatocytes
Experimental: (§1) The hepatocytes are isolated from Wistar rat liver having fasted for 24 h after perfusion of collagenase in the portal vein. 1) The freshly isolated hepatocytes are sown in 6-well plates coated with collagen and containing an adhesion medium (Williams Medium). After adhesion, the medium is replaced with RPMI 1640 medium without any glucose, containing hydrocortisone (7·10^−5M) for a duration from 16 to 18 h. The next day, the glucose hepatic production test is conducted in a Krebs medium for 3 h. The basal conditions are cells incubated with only Krebs, the stimulated conditions are the cells placed in Krebs+lactate+pyruvate, the produced conditions are the cells exposed to chemical compounds in a Krebs/lactate/pyruvate medium. In the case when the compounds are dissolved in DMSO, all the conditions of the tests are met in the presence of a final concentration of 0.1% DMSO. The positive control of the test is the mercaptopicolinate known for its inhibitory action on hepatic production of glucose via the phosphoenolpyruvate carboxykinase. For short term treatments, the compounds are incubated for 3 h. For long term treatments, the compounds are incubated for 20 h at the moment when the hepatocytes are cultivated in RPMI and then added during the hepatic production test for 3 h. At the end of the 3 hours of incubation, the supernatant is recovered for measurement of glucose with a colorimetric method using glucose oxidase. The cells are lysed with a 0.1% NaOH aqueous solution in order to measure the amount of protein with the Lowry method. The results are expressed in mmol of glucose per mg of protein.

[3] = system: isolated perfused pancreases of N0STZ diabetic rats; assay: Insulin secretion in response to glucose at isolated perfused pancreases of N0STZ diabetic rats; parameters: species or system rat; conditions: glucose 16.5 mM, control group 560 ± 71
Experimental: The pancreas was taken on rats made to be diabetic by injection of Streptozotocin on the day of birth and anaesthetized with Pentobarbital (Nembutal©: 45 mg/kg; intraperitoneal route). These rats have a specific deficiency of the insulin response to glucose, as observed in humans with diabetes of type II. The isolation and the perfusion of the pancreas were achieved according to a modification of the procedure described by Sussman et al.. The effect of the compounds or reference substances is tested for 35 minutes (from t=20 min to t=55 min) in Krebs buffer, and then 20 minutes (from t=55 min to t=75 min) in the presence of glucose 16.5 mM. The concentration of insulin secreted into the medium is measured by an Elisa assay (ELISA Alpco Cat no. 80-INSRTH-E10). The results are expressed as an average +/−SEM (Standard Error of the Mean) of several experiments.

[4] = system: isolated rat hepatocytes; assay: Hepatic production of glucose, 3 h incubation; format: cell-based, Wistar rat; conditions: for activity at 50 µM / activity at 100 µM: Hepatocyte, rat hepatocytes; for activity at 50 µM: read-out: HGP % of ctrl @ 50 μM; for activity at 100 µM: read-out: HGP % of ctrl @ 100 μM
Experimental: as §1

[5] = system: GK rats; assay: Antidiabetic activity in GK (Goto-Kakisaki) rats; format: in vivo, rat; conditions: single oral dose 50 mg/kg
Experimental: The antidiabetic activity of compound 118 was evaluated in GK rats, a non-obese model of diabetes of type II. This model was obtained by cross-breeding of Wistar rats selected on the basis of a slight intolerance to glucose. These rats have the majority of dysfunctions observed in diabetes of type II in humans: hyperglycaemia, intolerance to glucose, insulin-resistance, and deteriorated insulin response to glucose. These animals were bred at Metabrain and were housed in an animal housing facility with a regulated temperature (22±2° C.) under constant humidity (50±20%) with a day/night cycle of 12 h (light from 7 h-19 h) and have access ad libitum to food and drink. The housing and experimentation conditions comply with the European directives relating to health and ethical treatment of laboratory animals (ETS123). In this study, the rats used are male 16-week old GK rats having fasted for 2 hours before beginning the study (postabsorptive condition). Monitoring of glycaemia is carried out on 2 groups of rats: One group treated with the compound 118 orally at the single dose of 50 mg/kg and a control group treated orally with the carrier. A blood sample was taken at T0 just before administration of the compound 118 or of the carrier and at times T1 h, T2 h, T4 h and T6 h after administration. The determination of glycaemia is achieved from a drop of blood taken from the tail measured with a glucometer Accu-Check Performa. The results shown below are expressed as a percentage of the decrease of glycaemia at T1 h, T2 h, T4 h and T6 h for the group treated with the compound 118 as compared with the control group

SMILES	insulin secretion, % of control at 10 µM [1] [%]	insulin secretion, % of control at 50 µM [1] [%]	HGP % of ctrl @ 50 μM [2]	HGP % of ctrl @ 100 μM [2]	activity at 50 µM [4] [%]	activity at 100 µM [4] [%]	inhibition of hepatic production of glucose ([4]; with two doses)	other results
CCOC(=O)COCc1nc2ccccn2c1C#Cc1cccc(OC)c1 [Derivative 12, ethyl 2-((3-((3-methoxyphenyl)-ethynyl)imidazo[1,2-a]pyridin-2-yl)methoxy)acetate]	123	204	89 % of ctrl	54 % of ctrl				
O=C(O)COCc1nc2ccccn2c1C#Cc1ccc(F)cc1 [Derivative 44, 2-((3-((4-fluorophenyl)ethynyl)-imidazo[1,2-a]pyridin-2-yl)methoxy)acetic acid]								Insulin secretion peak at G16.5 mM, Tested product ([3]; tested concentration 10 μM): 1 724 μU/min.
O=C([O-])COCc1nc2ccccn2c1C#Cc1ccc(F)cc1.[Na+] [Derivative 46, sodium 2-((3-((4-fluorophenyl)-ethynyl)imidazo[1,2-a]pyridin-2-yl)methoxy)acetate]			93 % of ctrl	52 % of ctrl	85	69		
CC(C)OC(=O)COCc1nc2ccccn2c1C#Cc1ccc(F)cc1 [Derivative 54, isopropyl 2-((3-((4-fluorophenyl)ethynyl)imidazo [1,2-a]pyridin-2-yl)methoxy) acetate]	203		64 % of ctrl	44 % of ctrl				Insulin secretion peak at G16.5 mM, Tested product ([3]; tested concentration 1 μM): 961 ± 130 μU/min.; Insulin secretion peak at G16.5 mM, Tested product ([3]; tested concentration 10 μM): 1 637 μU/min.
CCONC(=O)COCc1nc2ccccn2c1C#Cc1ccc(F)cc1 [Derivative 58, N-ethoxy-2-((3-((4-fluorophenyl)ethynyl)imidazo [1,2-a]pyridin-2-yl)methoxy) acetamide]	127	233	32 % of ctrl	17 % of ctrl				inhibition of hepatic production of glucose [2]: strongest inhibitions
COC(=O)c1cccc(OCc2nc3ccccn3c2C#Cc2ccccc2)c1 [Derivative 87, methyl 3-((3-(phenylethynyl)-imidazo[1,2-a]pyridin-2-yl)methoxy)benzoate]	182	167			43	25	strongest inhibitions	
O=C(O)c1ccccc1OCc1nc2ccccn2c1C#Cc1ccc(F)cc1 [Derivative 88, 2-((3-((4-fluorophenyl)ethynyl)-imidazo[1,2-a]pyridin-2-yl)methoxy)benzoic acid]	138	263			67	50		inhibition of hepatic production of glucose ([4]; dose of 100 μM): strongest inhibitions
O=C([O-])c1ccccc1OCc1nc2ccccn2c1C#Cc1ccccc1.[Na+] [Derivative 92, sodium 2-((3-(phenylethynyl)imidazo-[1,2-a]pyridin-2-yl)methoxy)-benzoate]	135	211			58	39	strongest inhibitions	
CCOC(=O)CSCc1nc2ccc(Cl)cn2c1C#Cc1ccc(F)cc1 [Derivative 110, ethyl 2-[[6-chloro-3-[2-[4-(fluoro)-phenyl]ethynyl]imidazo[1,2-a]pyridin-2-yl]methylsulfanyl]acetate]	162	140			50	37	strongest inhibitions	
CCOC(=O)CSCc1nc2ccc(Cl)cn2c1C#Cc1cccc(C(F)(F)F)c1 [Derivative 111, ethyl 2-[[6-chloro-3-[2-[3-(trifluoro-methyl)phenyl]ethynyl]imidazo [1,2-a]pyridin-2-yl]methylsulfanyl]acetate]	136	173			73	27		inhibition of hepatic production of glucose ([4]; dose of 100 μM): strongest inhibitions
CCOC(=O)CSCc1nc2ccc(Cl)cn2c1C#Cc1cccc(OC(F)(F)F)c1 [Derivative 112, ethyl 2-[[6-chloro-3-[2-[3-(trifluoromethoxy)phenyl]ethynyl]imidazo[1,2-a]pyridin-2-yl]methylsulfanyl]acetate]	150	256			65	26		inhibition of hepatic production of glucose ([4]; dose of 100 μM): strongest inhibitions
O=C(O)CSCc1nc2ccc(Cl)cn2c1C#Cc1ccc(F)cc1 [Derivative 117, 2-[[6-chloro-3-[2-(4-fluorophenyl)ethynyl]imidazo [1,2-a]pyridin-2-yl]methylsulfanyl]acetic acid]	130	137			55	43	strongest inhibitions	
O=C(O)CSCc1nc2ccc(Cl)cn2c1C#Cc1cccc(C(F)(F)F)c1 [Derivative 118, 2-[[6-chloro-3-[2-[3-(trifluoro-methyl)-phenyl]ethynyl]imidazo[1,2-a]pyridin-2-yl]methylsulfanyl] acetic acid]			57 % of ctrl					% of activity on glycemia ([5]; T1 h after administration, p = 0.0242): −14%; % of activity on glycemia ([5]; T2 h after administration, p = 0.0171): −15%; % of activity on glycemia ([5]; T4 h after administration, p = 0.1468 NS): −10%; % of activity on glycemia ([5]; T6 h after administration, p = 0.2450 NS): −8%; reduction of hyperglycaemia [5]: capable of reducing hyperglycaemia
